We go through 24 compounds from US8134015B2, “Compound inhibiting in vivo phosphorous transport and medicine containing the same” (Kyowa Hakko Kirin Co., Ltd., priority 2003, dated 2012).

In the test the target is T1, rat NaPi-2b (Rattus norvegicus, UniProt Q9JJ09).
T1 construct: expressed in transfected cells; host or cells: Xenopus oocytes injected with cRNA
T1 sequence (Q9JJ09 1-695): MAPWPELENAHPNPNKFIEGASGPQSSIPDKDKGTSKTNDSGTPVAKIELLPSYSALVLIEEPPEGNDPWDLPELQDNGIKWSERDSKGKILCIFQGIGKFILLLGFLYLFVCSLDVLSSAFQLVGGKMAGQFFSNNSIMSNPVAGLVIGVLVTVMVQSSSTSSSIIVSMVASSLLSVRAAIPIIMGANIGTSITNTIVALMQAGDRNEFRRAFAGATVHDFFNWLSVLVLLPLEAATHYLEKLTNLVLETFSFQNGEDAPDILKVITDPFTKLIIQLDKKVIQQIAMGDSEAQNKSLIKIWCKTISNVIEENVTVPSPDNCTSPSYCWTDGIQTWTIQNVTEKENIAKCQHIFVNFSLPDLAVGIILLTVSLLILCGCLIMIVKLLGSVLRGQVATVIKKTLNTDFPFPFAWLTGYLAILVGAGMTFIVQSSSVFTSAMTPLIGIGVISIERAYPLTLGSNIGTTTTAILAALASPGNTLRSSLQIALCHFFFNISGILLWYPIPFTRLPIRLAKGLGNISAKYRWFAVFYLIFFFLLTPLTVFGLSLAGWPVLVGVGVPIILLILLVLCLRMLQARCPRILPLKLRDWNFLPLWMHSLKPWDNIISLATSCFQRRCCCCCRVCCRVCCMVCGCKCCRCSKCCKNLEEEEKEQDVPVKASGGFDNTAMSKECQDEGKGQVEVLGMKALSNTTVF
Put plainly: Sodium-dependent phosphate uptake of Xenopus oocytes which expressed NaPi-2b (32P). The class given is cell-based. The note with it: for inhibition at 300 µM: phosphate uptake, oocytes expressing rat NaPi-2b, determined from inhibition curve; for IC50: Xenopus oocytes expressing rat NaPi-2b, 32P radioactive phosphorus, read-out: IC50 (phosphate uptake inhibitory activity). A digest of the protocol:
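Rat small-intestine NaPi-2b cRNA injected into Xenopus oocytes, expressed for 2 days. Sodium-dependent phosphate uptake measured with 32P; % inhibition at 300 and 100 μM taken from the same inhibition curve.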

Bounds are passed on as bounds.

A word on the inhibition: it is the percentage by which the read-out fell short of the control. Low readings indicate a response near the control, high ones a response far below the control. The compound `COc1ccc(/C=N/NC(=O)c2cc(N3CCCC3=O)ccc2NC(=O)c2cccc(CN(CC(C)O)CC(C)O)c2)cc1` (stereo not drawn) [Compound 946, 3-{[Bis-(2-hydroxy-propyl)-amino]-methyl}-N-[2-(4-methoxy-benzylidene-hydrazinocarbonyl)-4-(2-oxo-pyrrolidin-1-yl)-phenyl]-benzamide] yielded an inhibition at 300 µM of 45%. What is called IC50 is the point on the concentration scale where inhibition reaches its midpoint. On to `CC(O)CN(Cc1cccc(C(=O)Nc2ccc(N3CCCC3=O)cc2C(=O)N/N=C/c2ccc(F)cc2)c1)CC(C)O` (stereo not drawn) [Compound 947, 3-{[Bis-(2-hydroxy-propyl)-amino]-methyl}-N-[2-(4-fluoro-benzylidene-hydrazinocarbonyl)-4-(2-oxo-pyrrolidin-1-yl)-phenyl]-benzamide], for which the IC50 stood at 30.2 µM. Turning to `Cc1ccc(/C=N/NC(=O)c2cc(N3CCCC3=O)ccc2NC(=O)c2cccc(CN(CC(C)O)CC(C)O)c2)cc1` (stereo not drawn) [Compound 948, 3-{[Bis-(2-hydroxy-propyl)-amino]-methyl}-N-[2-(4-methyl-benzylidene-hydrazinocarbonyl)-4-(2-oxo-pyrrolidin-1-yl)-phenyl]-benzamide], the IC50 amounted to 11.6 µM. `Cc1ccc(/C=N/NC(=O)c2cc(OCC(O)CN3CCCCC3)ccc2NC(=O)c2cccc(CN(CC(C)O)CC(C)O)c2)cc1C` (stereo not drawn) [Compound 949, 3-{[Bis-(2-hydroxy-propyl)-amino]-methyl}-N-[2-(3,4-dimethyl-benzylidene-hydrazinocarbonyl)-4-(2-hydroxy-3-piperidin-1-yl-propoxy)-phenyl]-benzamide] had an inhibition at 300 µM of 72.6%. With `CC(O)CN(Cc1cccc(C(=O)Nc2ccc(OCC(O)CN3CCCCC3)cc2C(=O)N/N=C/c2ccc(Cl)c(C(F)(F)F)c2)c1)CC(C)O` (stereo not drawn) [Compound 950, 3-{[Bis-(2-hydroxy-propyl)-amino]-methyl}-N-[2-(4-chloro-3-trifluoromethyl-benzylidene-hydrazinocarbonyl)-4-(2-hydroxy-3-piperidin-1-yl-propoxy)-phenyl]-benzamide], the IC50 is 9.08 µM. For the compound `CCN(CC)CC(O)COc1ccc(NC(=O)c2cccc(CN(CC(C)O)CC(C)O)c2)c(C(=O)N/N=C/c2ccc(C)c(C)c2)c1` (stereo not drawn) [Compound 951, 3-{[Bis-(2-hydroxy-propyl)-amino]-methyl}-N-[4-(3-diethylamino-2-hydroxy-propoxy)-2-(3,4-dimethyl-benzylidene-hydrazinocarbonyl)-phenyl]-benzamide], testing at 300 µM gave an inhibition of 68.5%. As for `CCN(CC)CC(O)COc1ccc(NC(=O)c2cccc(CN(CC(C)O)CC(C)O)c2)c(C(=O)N/N=C/c2ccc(Cl)c(C(F)(F)F)c2)c1` (stereo not drawn) [Compound 952, 3-{[Bis-(2-hydroxy-propyl)-amino]-methyl}-N-[2-(4-chloro-3-trifluoromethyl-benzylidene-hydrazinocarbonyl)-4-(3-diethylamino-2-hydroxy-propoxy)-phenyl]-benzamide], the IC50 was 19.2 µM. Consider `Cc1ccc(/C=N/NC(=O)c2cc(OCC(O)CN3CCOCC3)ccc2NC(=O)c2cccc(CN(CC(C)O)CC(C)O)c2)cc1C` (stereo not drawn) [Compound 953, 3-{[Bis-(2-hydroxy-propyl)-amino]-methyl}-N-[2-(3,4-dimethyl-benzylidene-hydrazinocarbonyl)-4-(2-hydroxy-3-morpholin-4-yl-propoxy)-phenyl]-benzamide], for which the inhibition at 300 µM stood at 67.8%. With `CC(O)CN(Cc1cccc(C(=O)Nc2ccc(OCC(O)CN3CCOCC3)cc2C(=O)N/N=C/c2ccc(Cl)c(C(F)(F)F)c2)c1)CC(C)O` (stereo not drawn) [Compound 954, 3-{[Bis-(2-hydroxy-propyl)-amino]-methyl}-N-[2-(4-chloro-3-trifluoromethyl-benzylidene-hydrazinocarbonyl)-4-(2-hydroxy-3-morpholin-4-yl-propoxy)-phenyl]-benzamide], the IC50 amounted to 60.5 µM. In turn, `COc1ccc(C(=O)Nc2sc(C)cc2C(=O)N/N=C/c2ccc(Cl)c(C(F)(F)F)c2)cc1OC` [Compound 955, N-[3-(4-Chloro-3-trifluoromethyl-benzylidene-hydrazinocarbonyl)-5-methyl-thiophen-2-yl]-3,4-dimethoxy-benzamide] yielded an inhibition at 300 µM of 57.7%. Take `CCN(CC)Cc1cccc(C(=O)Nc2sc(CN3CCCCC3)c(C)c2C(=O)N/N=C/c2ccc(Cl)c(C(F)(F)F)c2)c1` [Compound 956, N-[3-(4-Chloro-3-trifluoromethyl-benzylidene-hydrazinocarbonyl)-4-methyl-5-piperidin-1-ylmethyl-thiophen-2-yl]-3-diethylaminomethyl-benzamide]: the half-maximal inhibitory concentration (IC50) worked out at 29.8 µM. With `CCN(CC)Cc1cccc(C(=O)Nc2sc(CN3CCCCC3)c(C)c2C(=O)N/N=C/c2ccc(OC)cc2)c1` [Compound 957, 3-Diethylaminomethyl-N-[3-(4-methoxy-benzylidene-hydrazinocarbonyl)-4-methyl-5-piperidin-1-ylmethyl-thiophen-2-yl]-benzamide], the inhibition at 300 µM was determined as 54.9%.

Take `COc1ccc(/C=N/NC(=O)c2cc(N3CCCCC3)ccc2NC(=O)c2cccc(CN(CC(C)O)CC(C)O)c2)cc1` (stereo not drawn) [Compound 958, 3-{[Bis-(2-hydroxy-propyl)-amino]-methyl}-N-[2-(4-methoxy-benzylidene-hydrazinocarbonyl)-4-piperidin-1-yl-phenyl]-benzamide]: the IC50 was under 1 µM. Still for that read-out and setting: to `CC(O)CN(Cc1cccc(C(=O)Nc2cc3ccccc3cc2C(=O)N/N=C/c2cccc(F)c2)c1)CC(C)O` (stereo not drawn) [Compound 959, 3-{[Bis-(2-hydroxy-propyl)-amino]-methyl}-N-[3-(3-fluoro-benzylidene-hydrazinocarbonyl)-naphthalen-2-yl]-benzamide] belongs under 1 µM. Still for that read-out and setting: for `Cc1ccc(/C=N/NC(=O)c2cc3ccccc3cc2NC(=O)c2cccc(CN(CC(C)O)CC(C)O)c2)cc1` (stereo not drawn) [Compound 960, 3-{[Bis-(2-hydroxy-propyl)-amino]-methyl}-N-[3-(4-methyl-benzylidene-hydrazinocarbonyl)-naphthalen-2-yl]-benzamide] the value was 1.12 µM; for `Cc1ccc(/C=N/NC(=O)c2cc3ccccc3cc2NC(=O)c2cccc(CN(CC(C)O)CC(C)O)c2)cc1C` (stereo not drawn) [Compound 961, 3-{[Bis-(2-hydroxy-propyl)-amino]-methyl}-N-[3-(3,4-dimethyl-benzylidene-hydrazinocarbonyl)-naphthalen-2-yl]-benzamide], under 1 µM. The same measure, in the same setting: to `CC(O)CN(Cc1cccc(C(=O)Nc2cc3ccccc3cc2C(=O)N/N=C/c2ccc(Cl)c(C(F)(F)F)c2)c1)CC(C)O` (stereo not drawn) [Compound 962, 3-{[Bis-(2-hydroxy-propyl)-amino]-methyl}-N-[3-(4-chloro-3-trifluoromethyl-benzylidene-hydrazinocarbonyl)-naphthalen-2-yl]-benzamide] belongs under 1 µM; to `COc1ccc(/C=N/NC(=O)c2cc3ccccc3cc2NC(=O)c2cccc(CN(CC(C)O)CC(C)O)c2)cc1` (stereo not drawn) [Compound 963, 3-{[Bis-(2-hydroxy-propyl)-amino]-methyl}-N-[3-(4-methoxy-benzylidene-hydrazinocarbonyl)-naphthalen-2-yl]-benzamide], under 1 µM. Compound `CC(O)CN(Cc1cccc(C(=O)Nc2ncccc2C(=O)N/N=C/c2cccc(F)c2)c1)CC(C)O` (stereo not drawn) [Compound 964, 3-{[Bis-(2-hydroxy-propyl)-amino]-methyl}-N-[3-(3-fluoro-benzylidene-hydrazinocarbonyl)-pyridin-2-yl]-benzamide] registered an inhibition at 300 µM of 67.5%. For the compound `Cc1ccc(/C=N/NC(=O)c2cccnc2NC(=O)c2cccc(CN(CC(C)O)CC(C)O)c2)cc1` (stereo not drawn) [Compound 965, 3-{[Bis-(2-hydroxy-propyl)-amino]-methyl}-N-[3-(4-methyl-benzylidene-hydrazinocarbonyl)-pyridin-2-yl]-benzamide], the IC50 was 27.2 µM. The same measure, in the same setting: to `Cc1ccc(/C=N/NC(=O)c2cccnc2NC(=O)c2cccc(CN(CC(C)O)CC(C)O)c2)cc1C` (stereo not drawn) [Compound 966, 3-{[Bis-(2-hydroxy-propyl)-amino]-methyl}-N-[3-(3,4-dimethyl-benzylidene-hydrazinocarbonyl)-pyridin-2-yl]-benzamide] belongs 16 µM; to `CC(O)CN(Cc1cccc(C(=O)Nc2ncccc2C(=O)N/N=C/c2ccc(Cl)c(C(F)(F)F)c2)c1)CC(C)O` (stereo not drawn) [Compound 967, 3-{[Bis-(2-hydroxy-propyl)-amino]-methyl}-N-[3-(4-chloro-3-trifluoromethyl-benzylidene-hydrazinocarbonyl)-pyridin-2-yl]-benzamide], 6.57 µM. With `COc1ccc(/C=N/NC(=O)c2cccnc2NC(=O)c2cccc(CN(CC(C)O)CC(C)O)c2)cc1` (stereo not drawn) [Compound 968, 3-{[Bis-(2-hydroxy-propyl)-amino]-methyl}-N-[3-(4-methoxy-benzylidene-hydrazinocarbonyl)-pyridin-2-yl]-benzamide], the inhibition at 300 µM is 52.7%. As to `O=C(Nc1cc2ccccc2cc1C(=O)N/N=C/c1cccc(F)c1)c1cccc(CN2CCN(CCO)CC2)c1` [Compound 969, N-[3-(3-Fluoro-benzylidene-hydrazinocarbonyl)-naphthalen-2-yl]-3-[4-(2-hydroxy-ethyl)-piperazin-1-ylmethyl]-benzamide], the IC50 was under 3 µM.
